Results taken from PubChem BioAssay AID1919009 (Molecular Pharmacology Branch, DTP, NCI, 2023).
pIC50: −log10 of the molar value.

Test system: K24384-001-R-PDC complex spheroid growth
Test: Anticancer human tumor K24384-001-R-PDC patient-derived pancreatic adenocarcinoma cell line growth inhibition [AhR]
Conditions: for pIC50: curve of first compound; for viability, T/C: stronger effect = lower value
From the text: Multicellular complex tumor spheroid response to aryl hydrocarbon receptor antagonists in combination with a variety of drugs and investigational agents in selected tumor cell lines
The current study was undertaken to assess response to aryl hydrocarbon receptor antagonists in combination with standard-of-care drugs and investigational agents in solid tumor complex spheroid models. Complex spheroids include a stromal component modeled by human endothelial cells (HUVEC) and fibroblasts modeled by human mesenchymal stem cells (MSCs). The concentration ranges selected for each drug and investigational agent were based upon clinically achievable concentrations if the clinical Cmax of the agent was known.
Compounds. The drugs and investigational agents: BAY 2416964 (NSC825713), GNF351 (NSC835774), CH-223191 (NSC835775), CPI-455 (NSC825282), aza-TdCyd (NSC777586), decitabine (NSC127716), belinostat (NSC758774), entinostat (NSC756642), pevonedistat (NSC761192), tazemetostat (NSC777109), talazoparib (NSC765396), olaparib (NSC753686), selinexor (NSC780203), nedisertib (M3814, NSC802822), bortezomib (NSC756655), venetoclax (NSC766270), doxorubicin (NSC123127), elimusertib (BAY189344, NSC800525), ceralasertib (AZD6738, NSC777638), TAK-243 (NSC785004), alisertib (NSC759677), etoposide (NSC141540), topotecan (NSC609699), eribulin (NSC707389), gemcitabine (NSC613327), carboplatin (NSC241240), cisplatin (NSC119875), and SN-38 (NSC673596) were obtained from the National Cancer Institute (NCI) Developmental Therapeutics Program Chemical Repository (32). The FDA-approved anticancer drug set is available from the Developmental Therapeutics Program at https://dtp.cancer.gov/organization/dscb/obtaining/available plates.htm. […] The stock solutions were prepared in dimethyl sulfoxide (DMSO, Sigma-Aldrich, St. Louis, MO, cat. D2650), except for the platinum compounds which were prepared in saline (Quality Biological, Gaithersburg, MD, cat. 114-055-101), at 800-fold the tested concentration and stored at -70 degrees C prior to their use. All drugs and investigational agents were tested over a range starting from a high concentration at or near the clinical Cmax and decreasing in half-log increments. If the clinical Cmax for an agent had not been determined, the highest concentration tested was 10 microM (Table 1).
Cell Culture. All cells were maintained in an incubator at 37 degrees C and 5% CO2 with 95% humidity. The PDC lines were cultured according to standard operating procedures established by the NCI PDMR (https://pdmr.cancer.gov). Briefly, all PDCs were thawed and cultured in Matrigel-coated flasks prepared with a working solution of 1X Ham's F-12 nutrient mix, without supplementation (Invitrogen, Waltham, MA, cat. 11765054), 100 U/mL penicillin-streptomycin (Invitrogen, cat. 15140122), and 2.5% Matrigel (Corning Inc., Corning, NY, cat. 354248) for the first three passages. All PDCs were cultured in complete DMEM/F-12 media containing advanced DMEM/F-12 (Invitrogen, cat. 12634028), 4.9% defined fetal bovine serum, heat inactivated (HyClone Laboratories Inc., Logan, UT, cat. SH30070.03HI), 389 ng/mL hydrocortisone (Sigma-Aldrich, cat. H4001), 9.7 ng/mL human EGF recombinant protein (Invitrogen, cat. PHG0313), 23.4 microg/mL adenine (Sigma-Aldrich, cat. A2786), 97.3 U/mL penicillin-streptomycin (Invitrogen, cat. 15140122), 1.9 mM L-glutamine (Invitrogen, cat. 25030081), and 9.7 microM Y-27632 dihydrochloride (Tocris Bioscience, Bristol, United Kingdom, cat. 1254). The PDCs were cultured in complete DMEM/F12 media without 10 microM Y-27632 dihydrochloride for at least two passages prior to the screen. The established cell lines NCI-H1341 and […] were cultured in DMEM/F-12, HEPES (Invitrogen, cat. 11330032), 5% defined fetal bovine serum (HyClone Laboratories Inc., cat. SH30070.03), ITS premix universal culture supplement [insulin (5 microg/mL), transferrin (5 microg/mL), and selenious acid (5 ng/mL)] […]

[1] = second compound 0.1 µM, first compound 0.0316 µM
[2] = second compound 0.1 µM, first compound 0.1 µM
[3] = second compound 0.1 µM, first compound 0.316 µM
[4] = second compound 0.1 µM, first compound 1 µM
[5] = second compound 0.316 µM, first compound 0.0316 µM
[6] = second compound 0.316 µM, first compound 0.1 µM
[7] = second compound 0.316 µM, first compound 0.316 µM
[8] = second compound 0.316 µM, first compound 1 µM
[9] = second compound 1 µM, first compound 0.0316 µM
[10] = second compound 1 µM, first compound 0.1 µM
[11] = second compound 1 µM, first compound 0.316 µM
[12] = second compound 1 µM, first compound 1 µM
[13] = second compound 3.16 µM, first compound 0.0316 µM
[14] = second compound 3.16 µM, first compound 0.1 µM
[15] = second compound 3.16 µM, first compound 0.316 µM
[16] = second compound 3.16 µM, first compound 1 µM
[17] = second compound 10 µM, first compound 0.0316 µM
[18] = second compound 10 µM, first compound 0.1 µM
[19] = second compound 10 µM, first compound 0.316 µM
[20] = second compound 10 µM, first compound 1 µM
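Wherever viability, T/C is given: percent of DMSO vehicle-treated spheroid viability set as 100%.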

`COc1cccc2c1C(=O)c1c(O)c3c(c(O)c1C2=O)CC(O)(C(=O)CO)CC3OC1CC(N)C(O)C(C)O1` (stereo not given) + CC(CO)NC(=O)c1cc(-c2ccc(Cl)cc2)nn(-c2cnn(C)c2)c1=O showed a pIC50 (second compound 0.1 µM) of 7.11, a pIC50 (second compound 0.316 µM) of 7.08 and a pIC50 (second compound 1 µM) of 7.15. The pIC50 (second compound 3.16 µM) was 7.17, the pIC50 (second compound 10 µM) was 7.28 and the viability, T/C [1] was 60.8%. It also gave a viability, T/C [2] of 45.7%, a viability, T/C [3] of 26.5% and a viability, T/C [4] of 8.5%. For the same compound, the viability, T/C (second compound 0.1 µM, first compound 3.16 µM) was 2.41%, the viability, T/C (second compound 0.1 µM, first compound 10 µM) was 9.56% and the viability, T/C [5] was 62%. It also gave a viability, T/C [6] of 46.9%, a viability, T/C [7] of 22.6% and a viability, T/C [8] of 5.23%. For the same compound, the viability, T/C (second compound 0.316 µM, first compound 3.16 µM) was 3.01%, the viability, T/C (second compound 0.316 µM, first compound 10 µM) was 8.52% and the viability, T/C [9] was 64.4%. For the same compound, the viability, T/C [10] was 43%, the viability, T/C [11] was 22.3% and the viability, T/C [12] was 5.55%. For the same compound, the viability, T/C (second compound 1 µM, first compound 3.16 µM) was 2.67%, the viability, T/C (second compound 1 µM, first compound 10 µM) was 9.64% and the viability, T/C [13] was 58.1%. The viability, T/C [14] was 44.5%, the viability, T/C [15] was 24.4% and the viability, T/C [16] was 4.46%. The viability, T/C (second compound 3.16 µM, first compound 3.16 µM) was 3.77%, the viability, T/C (second compound 3.16 µM, first compound 10 µM) was 8.98% and the viability, T/C [17] was 52.8%. It also gave a viability, T/C [18] of 46.4%, a viability, T/C [19] of 17.9% and a viability, T/C [20] of 2.07%. For the same compound, the viability, T/C (second compound 10 µM, first compound 3.16 µM) was 3.16% and the viability, T/C (second compound 10 µM, first compound 10 µM) was 10.2%.
`Nc1ncn(C2CC(O)C(CO)O2)c(=O)n1` (stereo not given) + CC(CO)NC(=O)c1cc(-c2ccc(Cl)cc2)nn(-c2cnn(C)c2)c1=O showed a pIC50 (second compound 0.1 µM) of under 6.00, a pIC50 (second compound 0.316 µM) of under 6.00 and a pIC50 (second compound 1 µM) of under 6.00. The pIC50 (second compound 3.16 µM) was under 6.00, the pIC50 (second compound 10 µM) was under 6.00 and the viability, T/C (second compound 0.1 µM, first compound 0.00316 µM) was 110%. For the same compound, the viability, T/C (second compound 0.1 µM, first compound 0.01 µM) was 116%, the viability, T/C [1] was 109% and the viability, T/C [2] was 65.8%. For the same compound, the viability, T/C [3] was 87.7%, the viability, T/C [4] was 67.5% and the viability, T/C (second compound 0.316 µM, first compound 0.00316 µM) was 105%. It also gave a viability, T/C (second compound 0.316 µM, first compound 0.01 µM) of 111%, a viability, T/C [5] of 109% and a viability, T/C [6] of 76.2%. It also gave a viability, T/C [7] of 69.9%, a viability, T/C [8] of 63.8% and a viability, T/C (second compound 1 µM, first compound 0.00316 µM) of 98.2%. For the same compound, the viability, T/C (second compound 1 µM, first compound 0.01 µM) was 93.4%, the viability, T/C [9] was 112% and the viability, T/C [10] was 95.8%. The viability, T/C [11] was 75.4%, the viability, T/C [12] was 62.8% and the viability, T/C (second compound 3.16 µM, first compound 0.00316 µM) was 74.3%. For the same compound, the viability, T/C (second compound 3.16 µM, first compound 0.01 µM) was 102%, the viability, T/C [13] was 81.3% and the viability, T/C [14] was 67.9%. The viability, T/C [15] was 59.2%, the viability, T/C [16] was 57.3% and the viability, T/C (second compound 10 µM, first compound 0.00316 µM) was 80.4%. For the same compound, the viability, T/C (second compound 10 µM, first compound 0.01 µM) was 83.1%, the viability, T/C [17] was 79.3% and the viability, T/C [18] was 67.1%. For the same compound, the viability, T/C [19] was 58.2% and the viability, T/C [20] was 63.2%.
